# Active and inactive are the calls of the source. The rule behind the calls is not given here.
# Columns and labels:
# [1] = molecular target: Focal adhesion kinase 1 (Mus musculus) (UniProt P34152); assay: Inhibition of FAK phosphorylation at Tyr397 residue in mouse 4T1 cells harbouring mCherry red fluorescent protein at 0.1 to 1 uM incubated for 1 hr by immunoblotting analysis; format: cell-based; details: dose 0.1-1 µM
# 4T1 [2] = assay: Inhibition of Src phosphorylation at Tyr416 residue in mouse 4T1 cells harbouring mCherry red fluorescent protein incubated for 1 hr by immunoblotting analysis; format: cell-based; details: dose 0.1-1 µM
# 4T1 [3] = assay: Inhibition of cell adhesion to fibronectin in mouse 4T1 cells at 0.4 uM incubated for 4 hrs by […]; format: functional, cell-based
# Chain of Focal adhesion kinase 1 (Mus musculus) (P34152 whole entry): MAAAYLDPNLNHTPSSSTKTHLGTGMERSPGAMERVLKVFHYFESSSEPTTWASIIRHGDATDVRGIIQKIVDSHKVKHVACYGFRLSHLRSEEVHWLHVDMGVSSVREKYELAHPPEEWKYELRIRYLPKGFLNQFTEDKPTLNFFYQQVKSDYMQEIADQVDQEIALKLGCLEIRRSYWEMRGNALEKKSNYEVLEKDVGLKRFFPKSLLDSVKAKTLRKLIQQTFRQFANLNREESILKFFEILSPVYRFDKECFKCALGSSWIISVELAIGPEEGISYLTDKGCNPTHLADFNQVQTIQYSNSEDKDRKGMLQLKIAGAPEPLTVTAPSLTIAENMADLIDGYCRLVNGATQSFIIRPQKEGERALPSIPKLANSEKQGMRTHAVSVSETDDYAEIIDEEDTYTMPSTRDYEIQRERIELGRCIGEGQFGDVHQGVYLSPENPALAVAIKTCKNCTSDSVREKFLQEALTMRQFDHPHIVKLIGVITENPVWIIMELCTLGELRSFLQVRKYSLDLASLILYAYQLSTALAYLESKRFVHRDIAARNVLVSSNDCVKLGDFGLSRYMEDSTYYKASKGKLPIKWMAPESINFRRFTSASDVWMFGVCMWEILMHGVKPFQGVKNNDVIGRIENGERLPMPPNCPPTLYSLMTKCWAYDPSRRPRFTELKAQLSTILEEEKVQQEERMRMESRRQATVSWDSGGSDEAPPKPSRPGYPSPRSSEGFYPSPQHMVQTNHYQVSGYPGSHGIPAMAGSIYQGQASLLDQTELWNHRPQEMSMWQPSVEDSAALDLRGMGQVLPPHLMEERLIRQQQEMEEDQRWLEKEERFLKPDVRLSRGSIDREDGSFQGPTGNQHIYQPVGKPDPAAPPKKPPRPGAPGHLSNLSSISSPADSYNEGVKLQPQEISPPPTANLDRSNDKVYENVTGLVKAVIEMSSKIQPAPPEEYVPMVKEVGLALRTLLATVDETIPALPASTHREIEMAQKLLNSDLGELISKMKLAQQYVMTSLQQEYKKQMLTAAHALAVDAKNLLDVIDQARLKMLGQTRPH
smiles,measurement,setting,value
Cc1nc(Nc2ncc(C(=O)Nc3c(C)cccc3Cl)s2)cc(N2CCN(CCO)CC2)n1,inhibition,[1],inactive
same,inhibition,4T1 [2],Dose-Dependent Effect
same,inhibition,4T1 [3],inactive
